Read-outs that look alike come from different tables or passages of the source.
What was measured:
Male Sprague-Dawley rats = test: Rat paw edema assay (carrageenan-induced); format: in vivo; conditions: po, 3 hr; for ED50: Rattus norvegicus
Method: Male Sprague-Dawley rats (150-200 g) are fasted overnight and are given, po, either vehicle (1% methocel or 5% Tween 80) or a test compound. One hr later, a line is drawn using a permanent marker at the level above the ankle in one hind paw to define the area of the paw to be monitored. The paw volume (V0) is measured using a plethysmometer (Ugo-Basile, Italy) based on the principle of water displacement. The animals are then injected subplantarly with 50 µl of 1% carrageenan solution in saline (PMC Corp, Maine) into the paw using an insulin syringe with a 25-gauge needle (i.e. 500 µg carrageenan per paw). Three hr later, the paw volume (V3) is measured and the increases in paw volume (V3 - VO) are calculated. The animals are sacrificed by CO2 asphyxiation and the absence or presence of stomach lesions scored. Data is compared with the vehicle-control values and percent inhibition calculated. All treatment groups are coded to eliminate observer bias.

CHO [hCOX-1] = molecular target: T1, CHO [hCOX-1] (Homo sapiens, UniProt P23219); test: Whole cell assay for COX-1 using CHO transfected cell line (PGE2 synthesis); format: cell-based; conditions: CHO[hCOX-1] cells, 0.5 µM AA
T1 construct: expressed in transfected cells; host or cells: CHO cells, stably transfected with pCDNAIII
T1 sequence (P23219 24-599): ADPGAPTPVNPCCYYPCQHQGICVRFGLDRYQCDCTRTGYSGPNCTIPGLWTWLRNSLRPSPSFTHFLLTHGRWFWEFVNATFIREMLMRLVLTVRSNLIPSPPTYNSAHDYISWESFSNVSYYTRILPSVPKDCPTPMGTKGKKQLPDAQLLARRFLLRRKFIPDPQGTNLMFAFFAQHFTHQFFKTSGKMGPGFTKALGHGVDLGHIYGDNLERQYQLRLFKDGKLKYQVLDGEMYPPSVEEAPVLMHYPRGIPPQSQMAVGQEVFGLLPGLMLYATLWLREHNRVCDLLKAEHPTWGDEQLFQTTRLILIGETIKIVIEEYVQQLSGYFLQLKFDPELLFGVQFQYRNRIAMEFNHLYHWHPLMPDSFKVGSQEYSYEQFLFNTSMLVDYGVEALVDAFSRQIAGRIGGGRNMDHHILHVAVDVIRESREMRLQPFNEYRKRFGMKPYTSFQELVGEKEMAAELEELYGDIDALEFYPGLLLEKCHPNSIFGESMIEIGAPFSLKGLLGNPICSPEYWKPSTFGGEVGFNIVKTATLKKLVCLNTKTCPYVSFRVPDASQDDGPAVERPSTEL
Method: Chinese hamster ovary (CHO) cell lines which have been stably transfected with an eukaryotic expression vector pCDNAIII containing either the human COX-1 or COX-2 cDNA's are used for the assay. These cell lines are referred to as CHO [hCOX-1] and CHO [hCOX-2], respectively. […] Drugs to be tested are dissolved in DMSO to 66.7-fold the highest test drug concentration. […] Cells (0.3 x 10^6 cells in 200 µl) are preincubated with 3 µl of the test drug or DMSO vehicle for 15 min at 37°C. […] Cells are then challenged in the presence or absence of drug with the AA/HBSS solution to yield a final concentration of 0.5 µM AA in the CHO[hCOX-1] assay and a final concentration of 10 µM AA in the CHO[hCOX-2] assay. […] The samples are centrifuged at 300 x g at 4°C for 10 min, and an aliquot of the clarified supernatant is appropriately diluted for the determination of PGE2 levels using an enzyme-linked immunoassay for PGE2 (Correlate PGE2 enzyme immunoassay kit, Assay Designs, Inc.). Cyclooxygenase activity in the absence of test compounds is determined as the difference in PGE2 levels of cells challenged with arachidonic acid versus the PGE2 levels in cells mock-challenged with ethanol vehicle. Inhibition of PGE2 synthesis by test compounds is calculated as a percentage of the activity in the presence of drug versus the activity in the positive control samples.
In the assay, inhibition is determined by measuring the amount of prostaglandin E2 (PGE2) synthesized in the presence of arachidonic acid, cyclooxygenase-1 or cyclooxygenase-2 and a putative inhibitor.

COX-2 [1] = molecular target: T2, COX-2 (Homo sapiens, UniProt P35354); test: Human whole blood assay, COX-2 (LPS-induced PGE2 production); format: cell-based; set-up: endogenous in cells; host or cells: fresh heparinized human whole blood from volunteers, induced with LPS; conditions: human whole blood, LPS, 24 hours
T2 sequence (P35354 18-604): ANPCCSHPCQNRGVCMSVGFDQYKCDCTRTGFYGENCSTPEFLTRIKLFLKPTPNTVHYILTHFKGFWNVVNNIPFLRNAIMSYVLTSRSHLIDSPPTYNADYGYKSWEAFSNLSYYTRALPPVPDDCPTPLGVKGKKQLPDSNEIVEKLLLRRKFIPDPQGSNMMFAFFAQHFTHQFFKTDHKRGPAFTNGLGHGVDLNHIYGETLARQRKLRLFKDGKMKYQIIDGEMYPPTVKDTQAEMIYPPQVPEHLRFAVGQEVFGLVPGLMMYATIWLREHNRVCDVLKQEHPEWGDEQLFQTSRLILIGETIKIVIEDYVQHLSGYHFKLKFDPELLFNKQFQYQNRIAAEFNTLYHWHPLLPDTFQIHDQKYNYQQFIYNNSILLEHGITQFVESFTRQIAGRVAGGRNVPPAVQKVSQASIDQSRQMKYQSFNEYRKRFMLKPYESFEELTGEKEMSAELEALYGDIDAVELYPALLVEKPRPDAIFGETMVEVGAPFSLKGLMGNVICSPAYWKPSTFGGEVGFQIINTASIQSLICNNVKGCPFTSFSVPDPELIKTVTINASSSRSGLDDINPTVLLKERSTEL

COX-2 [2] = molecular target: T2, COX-2; test: Assay of the activity of purified human COX-2 (TMPD chromogenic assay); format: biochemical; set-up: made in house; host or cells: Sf9 cells
CHO [hCOX-2] = molecular target: T3, CHO [hCOX-2] (Homo sapiens, UniProt P35354); test: Whole cell assay for COX-2 using CHO transfected cell line (PGE2 synthesis); format: cell-based
T3 construct: expressed in transfected cells; host or cells: CHO cells, stably transfected with pCDNAIII
T3 sequence (P35354 18-604): T2 sequence (P35354 18-604)

[3] = Table III, read-out: COX-1 (IC50) CHO
[4] = Table III, read-out: COX-2 (IC50) HWB
[5] = Table III, purified enzyme, TMPD oxidation, read-out: COX-2 (IC50) TMPD
[6] = Table III, CHO[hCOX-2] cells, 10 µM AA, read-out: COX-2 (IC50) CHO
[7] = Table IV, read-out: COX-1 (IC50, µM) CHO
[8] = Table IV, read-out: COX-2(IC50, µM) HWB
[9] = Table IV, purified enzyme, TMPD oxidation, read-out: COX-2(IC50, µM) TMPD
[10] = Table IV, CHO[hCOX-2] cells, 10 µM AA, read-out: COX-2(IC50, µM) CHO

Row | Compound | IC50 (CHO [hCOX-1]; [3]) | ED50 (Male Sprague-Dawley rats; Table IV) | IC50 (COX-2 [1]; [8]) | IC50 (COX-2 [2]; [9]) | IC50 (CHO [hCOX-2]; [10]) | further results
1 | CC1(C)OC(=O)C(Oc2ccc(F)c(F)c2)=C1c1ccc(S(C)(=O)=O)cc1 [Example 1, 3-(3,4-Difluorophenoxy)-5,5-dimethyl-4-(4-(methylsulfonyl)phenyl)-5H-furan-2-one] | > 50 µM | – | – | – | – | ED50 (Male Sprague-Dawley rats; Table II): 0.14 mg/kg
2 | CC1(C)OC(=O)C(Oc2cc(F)cc(F)c2)=C1c1ccc(S(C)(=O)=O)cc1 [Example 3, 3-(3,5-Difluorophenoxy)-5,5-dimethyl-4-(4-(methylsulfonyl)phenyl)-5H-furan-2-one] | > 50 µM | – | – | – | – | –
3 | CC1(C)OC(=O)C(OC2CCCCC2)=C1c1ccc(S(C)(=O)=O)cc1 [Example 14, 3-Cyclohexyloxy-5,5-dimethyl-4-(4-(methylsulfonyl)phenyl)-5H-furan-2-one] | > 50 µM | – | – | – | – | –
4 | CS(=O)(=O)c1ccc(C2=C(Sc3ccccc3)C(=O)OC2)cc1 [Example 15, 3-Phenylthio-4-(4-(methylsulfonyl)phenyl)-5H-furan-2-one] | > 50 µM | – | – | – | – | IC50 (COX-2 [1]; [4]): > 30 µM; IC50 (COX-2 [2]; [5]): 0.22 µM; IC50 (CHO [hCOX-2]; [6]): 0.81 µM
5 | CS(=O)(=O)c1ccc(C2=C(Oc3ccccc3)C(=O)OC23CCCC3)cc1 [Example 20, 4-(4-(Methylsulfonyl)phenyl)-3-phenoxy-1-oxaspiro[4.4]non-3-en-2-one] | 4.68 µM | – | – | – | – | IC50 (COX-2 [1]; [4]): 0.23 µM; IC50 (COX-2 [2]; [5]): 0.44 µM; IC50 (CHO [hCOX-2]; [6]): 0.03 µM
6 | CC1(C)OC(=O)C(Cc2ccc(F)cc2)=C1c1ccc(S(C)(=O)=O)cc1 [Example 23, 3-(4-Fluorobenzyl)-5,5-dimethyl-4-(4-(methylsulfonyl)phenyl)-5H-furan-2-one] | > 50 µM | – | – | – | – | IC50 (COX-2 [1]; [4]): 1.53 µM; IC50 (COX-2 [2]; [5]): 1.33 µM; IC50 (CHO [hCOX-2]; [6]): 0.5 µM
7 | CC1(C)OC(=O)C(Oc2ccccn2)=C1c1ccc(S(C)(=O)=O)cc1 [Example 26, 3-(2-pyridyloxy)-5,5-dimethyl-4-(4-(methylsulfonyl)phenyl)-5H-furan-2-one] | > 100 µM | – | – | – | – | –
8 | Cc1cccc(OC2=C(c3ccc(S(C)(=O)=O)cc3)C(C)(C)OC2=O)n1 [Example 27, 3-(6-Methyl-2-pyridyloxy)-5,5-dimethyl-4-(4-(methylsulfonyl)phenyl)-5H-furan-2-one] | > 100 µM | – | – | – | – | IC50 (COX-2 [1]; [4]): 2.3 µM; IC50 (COX-2 [2]; [5]): 14 µM; IC50 (CHO [hCOX-2]; [6]): 0.41 µM
9 | CC1(C)OC(=O)C(Oc2ccncc2)=C1c1ccc(S(C)(=O)=O)cc1 [Example 37, 5,5-dimethyl-4-(4-methylsulfonyl-phenyl)-3-(pyridin-4-yloxy)-5H-furan-2-one] | – | – | – | – | – | IC50 (CHO [hCOX-1]; [7]): > 50 µM
10 | CC1(C)OC(=O)C(Oc2cccnc2)=C1c1ccc(S(C)(=O)=O)cc1 [Example 38, 5,5-dimethyl-4-(4-methylsulfonyl-phenyl)-3-(pyridin-3-yloxy)-5H-furan-2-one] | – | – | – | – | – | IC50 (COX-2 [2]): 41 µM; IC50 (CHO [hCOX-1]; [7]): > 50 µM
11 | CC(C)OC1=C(c2ccc(S(C)(=O)=O)cc2)C(C)(C)OC1=O [Example 109, 5,5-Dimethyl-4-(4-methylsulfonylphenyl)-3-(2-propoxy)-5H-furan-2-one] | – | 0.8 mg/kg | – | – | – | IC50 (CHO [hCOX-1]; [7]): > 50 µM
12 | CC[C@@]1(C)OC(=O)C(Oc2ccc(Cl)cc2)=C1c1ccc(S(C)(=O)=O)cc1 [Example 118, (5R)-3-(4-Chlorophenoxy)-5-ethyl-5-methyl-4-(4-methylsulfonyl)phenyl-5H-furan-2-one] | – | 1.4 mg/kg | 0.05 µM | 2.2 µM | 0.008 µM | –
13 | Cc1cc(OC2=C(c3ccc(S(C)(=O)=O)cc3)C(C)(C)OC2=O)ncc1F [Example 122, 3-(5-Fluoro-4-methyl-2-pyridyloxy)-5,5-dimethyl-4-(4-methylsulfonyl)-phenyl-5H-furan-2-one] | – | 1.2 mg/kg | 0.38 µM | 4.6 µM | 0.15 µM | –
14 | CC[C@@]1(C)OC(=O)C(Oc2ccc(Br)cc2)=C1c1ccc(S(C)(=O)=O)cc1 [Example 128, (5R)-3-(4-Bromophenoxy)-5-ethyl-5-methyl-4-(4-methylsulfonyl)phenyl-5H-furan-2-one] | – | 5 mg/kg | < 0.41 µM | 1.7 µM | – | IC50 (CHO [hCOX-2]; read-out: COX-2(IC50, µM) CHO): 0.01 µM
15 | CC[C@@]1(C)OC(=O)C(OC(C)C)=C1c1ccc(S(C)(=O)=O)cc1 [Example 140, 5(R)-5-ethyl-5-methyl-4-(4-(methylsulfonyl)phenyl)-3-(2-propoxy)-5H-furan-2-one] | – | 4.6 mg/kg | 0.54 µM | – | 0.12 µM | –
16 | C[C@]1(CC(F)(F)F)OC(=O)C(Oc2ccc(F)cc2)=C1c1ccc(S(C)(=O)=O)cc1 [Example 166, (5R)-3-(4-fluorophenoxy)-5-methyl-4-(4-methylsulfonyl)phenyl-5-(2,2,2-trifluoroethyl)-5H-furan-2-one] | – | – | 0.28 µM | 6.5 µM | 0.05 µM | Rat Paw Edema ED50(mg/kg) (Male Sprague-Dawley rats; Table IV): 4.9 mg/kg
17 | CC1(C)OC(=O)C(Oc2ncccc2F)=C1c1ccc(S(C)(=O)=O)cc1 [Example 167, 3-(3-Fluoro-2-pyridyloxy)-5,5-dimethyl-4-(4-methylsulfonyl) phenyl-5H-furan-2-one] | – | 6.4 mg/kg | 0.21 µM | – | 0.11 µM | –
18 | CC[C@@]1(C)OC(=O)C(Oc2ccc(Cl)cn2)=C1c1ccc(S(C)(=O)=O)cc1 [Example 169, (5R)-3-(5-chloro-2-pyridyloxy)-5-ethyl-5-methyl-4-(4-methylsulfonyl) phenyl-5H-furan-2-one] | – | 4.6 mg/kg | < 0.41 µM | 4 µM | 0.05 µM | –
19 | C[C@]1(CC(F)(F)F)OC(=O)C(Oc2ccc(Br)cn2)=C1c1ccc(S(C)(=O)=O)cc1 [Example 201, (5R)-3-(5-bromo-2-pyridyloxy)-4-(4-methylsulfonylphenyl)-5-methyl-5-(2,2,2-trifluoroethyl)-5H-furan-2-one] | – | 2.7 mg/kg | 0.18 µM | 14 µM | 0.07 µM | –
